Experimental findings from ChEMBL document CHEMBL6092154, “Design, synthesis, and evaluation of a novel TRAIL-activated HDAC6 inhibitor for the treatment of pulmonary fibrosis” (Bioorg Med Chem, 2024) are described below.

For one assay, the system named is Fibroblast. In words: Antiproliferative activity against human primary fibroblasts assessed as inhibition of cell growth incubated for 24 to 48 hrs by CCK8 assay. The assay is classed as functional, cell-based.
The target in another assay is Histone deacetylase 3 (Homo sapiens, UniProt O15379). In words: Inhibition of HDAC3 (unknown origin) at 1 uM incubated for 30 mins by fluorometric analysis.
For the next assay, the system named is RPMI-8226. In words: Antiproliferative activity against human RPMI-8226 cells assessed as inhibition of cell growth incubated for 24 to 48 hrs by CCK8 assay. The assay is classed as functional, cell-based.
Another assay concerns NIH3T3. In words: Antiproliferative activity against mouse NIH/3T3 cells assessed as inhibition of cell growth incubated for 24 to 48 hrs by CCK8 assay. The assay is classed as functional, cell-based.
The target in assay [1] is Histone deacetylase 1 (Homo sapiens) (UniProt Q13547). In words: Inhibition of HDAC1 (unknown origin) at 1 uM incubated for 30 mins by fluorometric analysis.
Assay [2] has as its target T1, Histone deacetylase 8 (Homo sapiens) (UniProt Q9BY41).
T1 sequence (whole entry): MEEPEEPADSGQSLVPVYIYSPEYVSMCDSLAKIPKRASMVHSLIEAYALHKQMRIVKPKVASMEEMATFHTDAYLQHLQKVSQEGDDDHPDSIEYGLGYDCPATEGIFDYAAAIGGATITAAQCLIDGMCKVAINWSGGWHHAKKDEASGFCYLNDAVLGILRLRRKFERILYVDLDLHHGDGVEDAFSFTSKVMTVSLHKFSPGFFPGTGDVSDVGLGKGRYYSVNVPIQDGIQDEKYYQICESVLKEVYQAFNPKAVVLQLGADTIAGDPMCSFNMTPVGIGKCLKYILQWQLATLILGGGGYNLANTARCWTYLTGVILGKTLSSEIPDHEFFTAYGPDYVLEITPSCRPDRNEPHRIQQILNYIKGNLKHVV
In words: Inhibition of HDAC8 (unknown origin) at 1 uM incubated for 30 mins by fluorometric analysis.

For assay [3], the target named is T2, Protein deacetylase HDAC6 (Homo sapiens) (UniProt Q9UBN7).
T2 sequence (whole entry): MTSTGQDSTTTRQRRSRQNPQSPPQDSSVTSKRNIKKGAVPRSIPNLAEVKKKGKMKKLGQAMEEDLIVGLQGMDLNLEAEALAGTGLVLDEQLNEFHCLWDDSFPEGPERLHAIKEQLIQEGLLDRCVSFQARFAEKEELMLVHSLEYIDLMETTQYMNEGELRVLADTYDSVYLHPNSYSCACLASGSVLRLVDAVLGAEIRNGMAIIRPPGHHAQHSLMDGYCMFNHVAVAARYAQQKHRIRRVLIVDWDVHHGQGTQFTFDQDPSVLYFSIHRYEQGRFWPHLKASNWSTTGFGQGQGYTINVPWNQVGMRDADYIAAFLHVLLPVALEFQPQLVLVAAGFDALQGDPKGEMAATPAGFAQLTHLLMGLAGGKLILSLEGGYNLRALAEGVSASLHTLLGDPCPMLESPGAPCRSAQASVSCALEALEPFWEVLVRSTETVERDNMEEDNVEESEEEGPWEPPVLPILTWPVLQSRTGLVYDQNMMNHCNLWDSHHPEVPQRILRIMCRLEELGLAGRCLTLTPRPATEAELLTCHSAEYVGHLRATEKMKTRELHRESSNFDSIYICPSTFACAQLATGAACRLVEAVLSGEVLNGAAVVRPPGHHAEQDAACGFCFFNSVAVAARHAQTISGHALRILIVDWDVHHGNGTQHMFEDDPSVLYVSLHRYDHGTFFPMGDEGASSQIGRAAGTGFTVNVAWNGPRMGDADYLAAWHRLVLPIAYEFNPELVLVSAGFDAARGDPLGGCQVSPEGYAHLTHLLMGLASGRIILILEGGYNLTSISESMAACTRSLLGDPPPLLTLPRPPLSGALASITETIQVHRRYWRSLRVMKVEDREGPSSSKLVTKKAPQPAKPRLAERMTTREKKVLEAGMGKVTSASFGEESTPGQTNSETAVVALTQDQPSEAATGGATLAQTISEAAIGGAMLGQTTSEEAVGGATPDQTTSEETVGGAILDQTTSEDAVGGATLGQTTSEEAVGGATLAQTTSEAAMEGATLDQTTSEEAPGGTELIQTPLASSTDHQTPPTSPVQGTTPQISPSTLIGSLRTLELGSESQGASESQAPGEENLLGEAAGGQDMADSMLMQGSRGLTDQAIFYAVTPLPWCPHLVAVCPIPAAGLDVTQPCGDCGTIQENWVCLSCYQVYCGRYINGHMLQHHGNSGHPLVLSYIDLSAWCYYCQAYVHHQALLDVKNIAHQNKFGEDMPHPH
In words: Inhibition of HDAC6 (unknown origin) at 1 uM incubated for 30 mins by fluorometric analysis.

The target of assay [4] is T3, Protein deacetylase HDAC6 (Homo sapiens, UniProt Q9UBN7).
T3 sequence (Q9UBN7 whole entry): T2 sequence (whole entry)
In words: Inhibition of HDAC6 (unknown origin) incubated for 30 mins by fluorometric analysis.

A further assay has as its target Histone deacetylase 2 (Homo sapiens, UniProt Q92769). In words: Inhibition of HDAC2 (unknown origin) at 1 uM incubated for 30 mins by fluorometric analysis.

Sequence of Histone deacetylase 2 (Q92769 whole entry): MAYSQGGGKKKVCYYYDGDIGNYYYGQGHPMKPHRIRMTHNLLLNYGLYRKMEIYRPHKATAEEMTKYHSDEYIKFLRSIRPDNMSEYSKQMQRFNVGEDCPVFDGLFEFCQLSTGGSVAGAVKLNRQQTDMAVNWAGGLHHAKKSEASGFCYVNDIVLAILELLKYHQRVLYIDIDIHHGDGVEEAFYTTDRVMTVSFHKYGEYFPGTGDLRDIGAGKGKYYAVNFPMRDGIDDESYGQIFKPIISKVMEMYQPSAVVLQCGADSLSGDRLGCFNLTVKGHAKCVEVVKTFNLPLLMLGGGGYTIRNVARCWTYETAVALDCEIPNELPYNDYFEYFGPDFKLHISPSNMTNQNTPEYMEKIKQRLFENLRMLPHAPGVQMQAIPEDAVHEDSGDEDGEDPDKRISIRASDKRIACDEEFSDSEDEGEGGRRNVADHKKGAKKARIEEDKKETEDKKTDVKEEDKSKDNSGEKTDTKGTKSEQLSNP
Sequence of Histone deacetylase 3 (O15379 whole entry): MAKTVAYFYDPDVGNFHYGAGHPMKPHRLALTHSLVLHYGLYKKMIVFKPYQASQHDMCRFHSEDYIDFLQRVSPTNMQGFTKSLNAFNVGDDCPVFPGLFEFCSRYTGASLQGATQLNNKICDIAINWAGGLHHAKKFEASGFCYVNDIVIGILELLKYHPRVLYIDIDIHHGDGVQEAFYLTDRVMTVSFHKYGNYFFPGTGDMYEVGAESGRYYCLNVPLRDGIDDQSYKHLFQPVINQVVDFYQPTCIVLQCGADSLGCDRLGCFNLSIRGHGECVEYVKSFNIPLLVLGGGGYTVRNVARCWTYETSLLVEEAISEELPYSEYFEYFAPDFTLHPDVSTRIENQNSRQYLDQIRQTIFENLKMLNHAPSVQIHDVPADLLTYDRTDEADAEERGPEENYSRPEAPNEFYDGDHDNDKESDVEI
Sequence of Histone deacetylase 1 (Homo sapiens) (Q13547 whole entry): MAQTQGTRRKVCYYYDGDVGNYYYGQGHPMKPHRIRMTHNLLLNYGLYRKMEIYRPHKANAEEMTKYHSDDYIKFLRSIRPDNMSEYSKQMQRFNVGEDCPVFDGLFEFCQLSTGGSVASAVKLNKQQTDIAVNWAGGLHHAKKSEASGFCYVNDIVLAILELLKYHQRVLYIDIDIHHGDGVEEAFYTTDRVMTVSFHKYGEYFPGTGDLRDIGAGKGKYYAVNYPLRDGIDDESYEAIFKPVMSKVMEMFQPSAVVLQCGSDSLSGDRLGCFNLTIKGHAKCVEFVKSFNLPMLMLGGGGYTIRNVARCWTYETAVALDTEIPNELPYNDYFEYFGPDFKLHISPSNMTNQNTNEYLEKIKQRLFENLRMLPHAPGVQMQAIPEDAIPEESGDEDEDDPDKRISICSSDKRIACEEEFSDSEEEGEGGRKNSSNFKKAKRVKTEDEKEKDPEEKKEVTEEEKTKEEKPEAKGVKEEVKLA

`Cc1ccccc1CN1CCC2=C(C1)C(=O)N(Cc1ccc(C(=O)NO)cc1)C1=NCCN12`: the IC50 with Fibroblast turned out to be 59200 nM; in the assay with RPMI-8226, 10700 nM; with NIH3T3 it was 5900 nM; in assay [4], 48 nM. Also, the inhibition is 51.2% against Histone deacetylase 3; 32.4% in assay [1]; 69.8% in [2]; 94.7% in assay [3]; 60.5% at Histone deacetylase 2.

Take `O=C(NO)c1ccc(CN2C(=O)C3=C(CCN(Cc4cccnc4)C3)N3CCN=C23)cc1`: the IC50 with Fibroblast amounted to 4580 nM; in the assay on RPMI-8226, 2880 nM; in the assay with NIH3T3, 8400 nM; in assay [4], 137 nM. For the same compound, the inhibition is 36.2% at Histone deacetylase 3; 9.3% in assay [1]; 66.4% in assay [2]; 95.1% in assay [3]; 46.3% on Histone deacetylase 2.

Regarding `O=C(NO)c1ccc(CN2C(=O)C3=C(CCN(Cc4cccc(Br)c4)C3)N3CCN=C23)cc1`, the IC50 in the assay on Fibroblast was 47400 nM; in the assay with RPMI-8226, 1860 nM; with NIH3T3, 100 nM; in assay [4], 31.5 nM. The inhibition at Histone deacetylase 3 came to 56.6%; in [1], 36.4%; in assay [2] it was 76%; in assay [3] it was 93.6%; against Histone deacetylase 2 it was 63.9%.

Turning to `COc1cccc(CN2CCC3=C(C2)C(=O)N(Cc2ccc(C(=O)NO)cc2)C2=NCCN23)c1`, the 50% inhibitory concentration (IC50) turned out to be 55200 nM in the assay on Fibroblast, 100 nM in the assay with RPMI-8226, 11400 nM in the assay on NIH3T3 and 104 nM in assay [4]. The inhibition on Histone deacetylase 3 came to 52.3%; in [1], 59.3%; in assay [2] it was 72.2%; in assay [3], 95.4%; against Histone deacetylase 2, 57.6%.

Consider `O=C(CCCCCCNC(=O)c1cnc(N(c2ccccc2)c2ccccc2)nc1)NO` [RICOLINOSTAT], for which the values for the concentration for half-maximal inhibition (IC50) in the assay on Fibroblast, in the assay with RPMI-8226 and with NIH3T3 were 35100 nM, 850 nM and 3530 nM, respectively. In addition, the inhibition in assay [3] stood at 98.5%.

Turning to `O=C(NO)c1ccc(CN2C(=O)C3=C(CCN(Cc4ccccc4)C3)N3CCN=C23)cc1`, the concentration for half-maximal inhibition (IC50) in the assay on Fibroblast was determined as 30600 nM; with RPMI-8226, 620 nM; in the assay with NIH3T3, 1000 nM; in [4] it was 65.4 nM. Moreover, the inhibition on Histone deacetylase 3 is 51.9%; in assay [1], 68.3%; in assay [2] it was 72.8%; in assay [3] it was 97.2%; at Histone deacetylase 2, 56.8%.

Regarding `O=C(NO)c1ccc(CN2C(=O)C3=C(CCN(Cc4ccc(Cl)c(C(F)(F)F)c4)C3)N3CCN=C23)cc1`, the IC50 with Fibroblast turned out to be 45300 nM; in the assay with RPMI-8226, 1080 nM; with NIH3T3, 9880 nM; in assay [4], 36.8 nM. Moreover, the inhibition against Histone deacetylase 3 came to 43.8%; in [1], 27.2%; in [2], 48.2%; in assay [3], 96.2%; on Histone deacetylase 2, 62.7%.

In the case of `Cc1cccc(CN2CCC3=C(C2)C(=O)N(Cc2ccc(C(=O)NO)cc2)C2=NCCN23)c1`, the IC50 with Fibroblast worked out at 50700 nM; with RPMI-8226, 1060 nM; in the assay with NIH3T3, 90 nM; in assay [4] it was 54.8 nM. The inhibition at Histone deacetylase 3 is 50.6%; in [1] it was 44.7%; in assay [2], 74.9%; in assay [3], 93.8%; at Histone deacetylase 2, 61.7%.

Turning to `O=C(NO)c1ccc(CN2C(=O)C3=C(CCN(Cc4cccc(C(F)(F)F)c4Cl)C3)N3CCN=C23)cc1`, the IC50 in the assay with Fibroblast is 111000 nM; in the assay with RPMI-8226, 49400 nM; in the assay with NIH3T3, 6710 nM; in [4], 60.1 nM. Also, the inhibition against Histone deacetylase 3 was 52.7%; in assay [1], 18.3%; in assay [2], 31%; in assay [3], 94.1%; at Histone deacetylase 2, 60.8%.

Turning to `O=C(NO)c1ccc(CN2C(=O)C3=C(CCN(Cc4cccc(F)c4)C3)N3CCN=C23)cc1`, the IC50 in the assay with Fibroblast came out at 26700 nM; with RPMI-8226, 1580 nM; in the assay with NIH3T3 it was 6510 nM; in [4], 64.4 nM. In addition, the inhibition on Histone deacetylase 3 came out at 56.4%; in assay [1], 47.9%; in [2] it was 75%; in [3], 97.1%; against Histone deacetylase 2, 61.9%.

In the case of `Cc1ccc(CN2CCC3=C(C2)C(=O)N(Cc2ccc(C(=O)NO)cc2)C2=NCCN23)cc1`, the IC50 with Fibroblast stood at 136000 nM; in the assay with RPMI-8226, 13300 nM; in the assay with NIH3T3, 1630 nM; in assay [4] it was 50.9 nM. Further, the inhibition against Histone deacetylase 3 turned out to be 53.1%; in [1], 31.8%; in assay [2], 63.6%; in [3], 91.3%; against Histone deacetylase 2, 58.4%.
